Where two headings read alike, the source gives them in different places.

The subject of one assay is basolateral K+ channels. Kind of assay: Basolateral K+ conductance in T84 monolayers permeabilized apically with amphotericin B. It is filed as cell-based, human. As for the experimental part: Selective mebrane Permeabilization and Measurement of Potassium Conductance of the Basolateral Membrane. The basolateral potassium conductance was measured using the technique developed by Dawson and co-workers. A potassium gradient (mucosal to serosal) was first established across the monolayer using asymmetric mucosal and serosal buffers containing K^+ as the sole permeant ion. The addition of amphotericin B (20 μM) to the mucosal reservoir forms conductive pores in the apical membrane, and thus removes all resistance to transepithelial potassium movement across this membrane. Thus, under the conditions of the experiment, in which the monolayer is short circuited (i.e., voltage-clamped at zero potential) and the transepithehal potassium gradient is constant, the amphotericin-dependent Isc becomes a measure of the rate of the transepithelial potassium flux across basolateral membranes. Changes in short circuit current (Isc), then represent changes in basolateral K^+ conductances (gK). Isc and K^+ conductances were measured using calomel electrodes, 3M KCI-agar bridges, and a voltage clamp (University of Iowa, Iowa City). To generate a voltage-current channel relationships, currents were elicited by 1 sec test potentials from −80 to +80 in 10 mV increments in the asymmetrical high K^+ gluconate solution.
Calculation of Basolateral Membrane K^+ Permeability: Membrane Permeabilities were Calculated According to the Formula:
^PK=(cm/s)=^JK(mM/cm^2·s)/Δ[K^+](mM/cm^3)
where Δ[K^+] is equal to the difference in K^+ concentration (135 mM) between the asymmetric apical and basolateral bathing solutions. Maximal Isc values were converted into K^+ fluxes by dividing by the Faraday constant F (96,500 coulombs/mol) as previously described (Huflejt et al., J. Clin. Invest. 93: 1900-1910 (1994)).
Basolateral K+ transport was examined in T84 monolayers permeabilized apically by pretreatment with amphotericin B. Apical and basolateral buffers contained K+ as the sole permeant ion. All studies were performed with a 135 mM basolaterally directed K+ gradient. This method has been utilized previously to examine both Cl— and K+ transport in T84 cells and HT29-Cl.16E cells. Briefly, ion conductances in the luminal or basolateral membranes of confluent T84 cell monolayers can be assessed separately by selectively permeabilizing the apical or basolateral membrane using the ionophore amphotericin B. This artificially removes all electrical resistance to ion transport across the plasma membrane containing pores formed by amphotericin B. As a result, the intact contralateral plasma membrane becomes rate limiting for transepithelial ion transport. Agonist-dependent changes in ion conductances can be assessed directly either as transepithelial short circuit current (Isc) in the presence of established ion gradients, or as transepithelial conductance (G) in the presence of established transepithelial potentials.

For the next assay, the system named is T84 cells. Nature of the assay: Electrogenic Cl- secretion (short circuit current, Isc) in confluent T84 monolayers. It is filed as cell-based, human.
The test system of assay [1] is apical membrane Cl- channels. Kind of assay: Apical Cl- conductance in T84 monolayers permeabilized basolaterally with amphotericin B. It is filed as cell-based, human. Conditions: symmetrical Cl- 142 mM; forskolin 10 μM.
The test system of assay [2] is basolateral NaK2Cl cotransporters. Kind of assay: Bumetanide-sensitive 86Rb uptake in T84 monolayers. Conditions: 33 μM for 30 min.
Assay [3] concerns intestinal fluid secretion induced by cholera toxin. It is filed as in vivo, Balb/C mice.
For assay [4], the system named is basolateral NaK2Cl cotransporters.
The subject of the next assay is rabbit colonic mucosa. Nature of the assay: Ussing chamber studies using rabbit colonic mucosa. As to conditions: clotrimazole 30 μM; forskolin 10 μM. The protocol: 4 male, New Zealand rabbits (2.5 kg) were anesthetized by an intravenous injection of pentobarbital (0.5 ml/kg). A 15 cm length of distal colon was removed and opened longitudinally. […] The volume of fluid on each side of the mucosa was 7 ml.
Potential difference and Isc were monitored continuously and registered every 10 minutes.

The subject of another assay is basolateral K+ channel. Kind of assay: 86Rb efflux from T84 monolayers (K+ channel activity). It is filed as cell-based, human. The protocol: (§1) After four baseline samples were obtained, the cells were treated (at t=8 minutes) with vasoactive intestinal peptide (VIP, […]) or thapsigargin (5 μM) to stimulate Cl^− secretion, and an additional 15 timed samples were obtained. Finally, the cell monolayer was rinsed, cut with its support from the polystyrene ring, and the residual cell-associated radioactivity was determined. Monolayers were maintained at 37° C. in room air throughout the study. ^86Rb was counted by scintillation counting and normalized to percent total uptake as previously described (Venglarik, et al, Am. J. Physiol. (Cell Physiol. 28):C358-C364 (1990).

Assay [5] concerns apical membrane Cl- channels. Kind of assay: 125I efflux from T84 monolayers. It is filed as cell-based, human. As for the experimental part: as §1, with “Cl—” for “Cl^−”, “^125I” for “^86Rb”, “gamma” for “scintillation”
The mark [6] stands for this setting: forskolin 10 μM, carbachol 100 μM.
Setting [7] is: 33 μM, final 30 minutes of preincubation.

Take `OC(c1ccccc1)(c1ccccc1)c1ccccc1Cl` [2-chlorophenyl-bis-phenyl methanol]: the “Inhibition of time course of K+ transport after forskolin and carbachol” value with basolateral K+ channels (setting [6]) was “Nearly identical results”. Moreover, the “Inhibition of cAMP and Ca++ elicited chloride secretion” value with T84 cells (T84 cells) is reported as “effective at inhibiting chloride secretion”.
For `[Ba+2].[Cl-].[Cl-]` [BaCl2], in the assay with basolateral K+ channels (carbachol 100 μM, same monolayers, BaCl2 3 mM), the “Effect on K+ transport induced by subsequent addition of carbachol” value is recorded as “no detectable effect”. For the same compound, the “Inhibition of cAMP-sensitive IK elicited by forskolin” value with basolateral K+ channels (forskolin 10 μM, BaCl2 3 mM basolateral) is “greater than 70%”. For the same compound, in the assay on T84 cells, the “Inhibition of Cl- secretory response (Isc) to Ca++-dependent agonist carbachol” value (from here on “Inhibition … to Ca++-dependent agonist carbachol”) was “no apparent affect” and the “Inhibition of Cl- secretory response (Isc) to cAMP mediated agonist VIP” value (“Inhibition … to cAMP mediated agonist VIP” for short) is on record as “strongly inhibited”.
As to `C[C@@H]1[C@H](O)[C@@H](C)/C=C/C=C/C=C/C=C/C=C/C=C/C=C/[C@H](O[C@@H]2O[C@H](C)[C@@H](O)[C@H](N)[C@@H]2O)C[C@@H]2O[C@](O)(C[C@@H](O)C[C@@H](O)[C@H](O)CC[C@@H](O)C[C@@H](O)CC(=O)O[C@H]1C)C[C@H](O)[C@H]2C(=O)O` [amphotericin B], the “Increase in conductance on initial permeabilization” value in the assay on basolateral K+ channels (amphotericin B apical) is 49±19%.
On to `C[N+](C)(C)CCOC(N)=O` [carbachol], for which the “Carbachol-induced IscK, carbachol added alone” value in the assay on basolateral K+ channels (apically permeabilized monolayers) was determined as 111.7±7.4 μA/cm^2. For the same compound, in the assay on basolateral K+ channels (apically permeabilized monolayers, forskolin 10 μM), the “Carbachol-induced IscK, carbachol added after forskolin” value came out at 180.7±15.7 μA/cm^2.
For `Clc1ccccc1C(c1ccccc1)(c1ccccc1)n1ccnc1` [clotrimazole], in the assay on basolateral K+ channels (setting [6]), the “Inhibition of time course of K+ transport after forskolin and carbachol” value is reported as “significantly inhibited”. In assay [1], the “Effect on forskolin- or thapsigargin-stimulated Cl- conductances” value is reported as “no detectable effect”. The “Reduction of total amount of 86Rb uptake” value in [2] (VIP, mean±SEM, n=6) is reported as 53.6±15.8%. In addition, in assay [2] (bumetanide 10 μM), the “Effect on bumetanide-sensitive fractional component of 86Rb uptake” value is recorded as “no effect”. For the same compound, in the assay with T84 cells (Homo sapiens, T84, read-out: IC50 for inhibition of secretory response to E. Coli heat-stabile toxin), the IC50 worked out at 15 µM. Besides, in the assay with T84 cells (T84 cells), the “Inhibition of cAMP and Ca++ elicited chloride secretion” value is “most potent inhibitor tested”. Moreover, the “Inhibition … to cAMP mediated agonist VIP” value in the assay on T84 cells (T84 cells, VIP 5 nM, BaCl 3 mM, charybdotoxin 100 nM) is recorded as “inhibited”. In addition, in the assay with T84 cells (T84 cells, carbachol 100 mM, BaCl 3 mM, charybdotoxin 100 nM), the “Inhibition … to Ca++-dependent agonist carbachol” value was “inhibited”. For the same compound, in the assay on T84 cells (T84 monolayers), the “Apparent potency of inhibition at a fixed time point, basolateral versus apical application” value was “greater when applied basolaterally than apically” and the “Inhibition with basolateral application alone compared with both sides of the monolayer” value was “almost as effective as incubation on both sides”. The “Reversibility of inhibition of Cl- secretion” value in the assay on T84 cells (after 60 min recovery in the presence of 0.01 mg/ml bovine serum albumin, n=4) came out at 96±2%. In addition, in the assay with T84 cells (low doses (=10^-7 or less)), the “Potentiation of Cl- secretory responses to either agonist at low doses” value was 5-10%. The “Inhibition of secretory response to agonists of the cAMP signalling cascade” value in the assay with T84 cells (preincubation 33 μM, 5 μM VIP, 10 μM forskolin or 3 mM 8Br-cAMP) is on record as “inhibited”. The “Inhibition of Cl- secretory response to Ca++-dependent agonists” value with T84 cells (pretreatment 33 μM, carbachol 100 μM, thapsigargin 5 μM or ionomycin 10 μm) is “inhibited strongly”. Also, the “Inhibition of the synergistic secretory response to VIP plus carbachol” value in the assay on T84 cells (same monolayers) was “parallel the inhibition of secretion promoted by Ca^++ agonists alone”. The “Reduction of intestinal fluid secretion induced by cholera toxin” value in assay [3] (5 hours) was 86%. Moreover, the “Effect on intestinal secretion in the absence of cholera toxin” value in assay [3] (mouse, in vivo) is recorded as “no effect”. For the same compound, the “Bumetanide-sensitive fractional component of 86Rb uptake” value in assay [4] was found to be 88±3.2 % total uptake. For the same compound, the “Inhibition of time course of forskolin induced Isc” value with rabbit colonic mucosa was “inhibited strongly”. For the same compound, the “Reduction of rate constant for VIP-stimulated 86Rb efflux” value with basolateral K+ channel (33 µM) is 87%. The “Rate constant for VIP-stimulated 86Rb efflux” value in the assay with basolateral K+ channel (33 μM clotrimazole, untreated 0.0465) was 0.0062 % uptake/minute. In the assay on basolateral K+ channel (33 μM clotrimazole, untreated 0.048, n=2), the “Rate constant for thapsigargin-stimulated 86Rb efflux” value worked out at 0.011 % uptake/minute. The “Effect of pretreatment on 86Rb loading of the cells” value in the assay on basolateral K+ channel (setting [7]) was “did not alter”. Also, the “Inhibition of baseline and Ca++ stimulated 86RB efflux” value in the assay on basolateral K+ channel (T84 cells with VIP or thapsigargin) is reported as “significantly inhibited”. In assay [5] (33 μM clotrimazole), the “Effect on time course of 125I efflux from monolayers treated with VIP” value is on record as “little or no effect”. Further, the “Effect of pretreatment on 125I loading of the cells” value in assay [5] (setting [7]) is “did not alter”. For the same compound, in assay [5] (VIP, 33 μM clotrimazole, not treated 0.0645, n=2 in duplicate), the “Rate constant for 125I efflux” value worked out at 0.0637 % uptake/minute.
For `Clc1ccc(COC(Cn2ccnc2)c2ccc(Cl)cc2Cl)cc1` (stereo not shown) [econazole], the “Inhibition of cAMP and Ca++ elicited chloride secretion” value in the assay with T84 cells (T84 cells) is recorded as “effective at inhibiting chloride secretion”.
For the compound `CC(=O)N1CCN(c2ccc(OCC3COC(Cn4ccnc4)(c4ccc(Cl)cc4Cl)O3)cc2)CC1` (stereo not shown) [ketoconazole], the “Inhibition of cAMP and Ca++ elicited chloride secretion” value in the assay with T84 cells (T84 cells) is recorded as “effective at inhibiting chloride secretion”.
Consider `Clc1ccc(COC(Cn2ccnc2)c2ccc(Cl)cc2Cl)c(Cl)c1` (stereo not shown) [miconazole], for which the “Inhibition of cAMP and Ca++ elicited chloride secretion” value in the assay on T84 cells (T84 cells) is “effective at inhibiting chloride secretion”.
Turning to charybdotoxin, the “Effect on K+ transport induced by subsequent addition of forskolin” value with basolateral K+ channels (charybdotoxin 100 nM) is given as “no detectable effect”. Besides, the “Inhibition of carbachol induced Ca++ IK” value in the assay on basolateral K+ channels (pretreatment with charybdotoxin 100 nM) turned out to be 50%. In addition, in the assay on T84 cells, the “Inhibition … to Ca++-dependent agonist carbachol” value is given as “strongly inhibited” and the “Inhibition … to cAMP mediated agonist VIP” value is recorded as “minimal affects”.

These data come from patent US6495567B1, “Triaryl methane compounds and their use in the treatment of diarrhea and scours” (Beth Israel Deaconess Medical Center, priority 1996, dated 2002).
